Source: ChEMBL document CHEMBL3132759, “Design and synthesis of a novel series of cyclohexyloxy-pyridyl derivatives as inhibitors of diacylglycerol acyl transferase 1” (Medchemcomm, 2013)
In brackets after ≈: the same amount, converted by molar mass.

What was measured:
[1] = Oral bioavailability in dog; format: ADME, organism-based, Canis lupus familiaris; details: in vivo
Canis familiaris = species: Canis familiaris; test: Unbound clearance in dog; format: ADME, organism-based, Canis lupus familiaris; details: in vivo
[2] = Clearance in dog; format: ADME, organism-based, Canis lupus familiaris; details: in vivo
[3] = Oral bioavailability in rat; format: ADME, organism-based; details: in vivo
Rattus norvegicus [4] = species: Rattus norvegicus; test: Unbound clearance in rat; format: ADME, organism-based; details: in vivo
[5] = Clearance in rat; format: ADME, organism-based; details: in vivo
Hepatocyte = test: Intrinsic clearance in human hepatocytes; format: ADME, cell-based
[6] = Apparent permeability in MDCK cells assessed as permeability from apical to basolateral side; format: ADME, cell-based, Canis lupus familiaris; details: dog
[7] = Lipophilicity, logD of the compound; format: physicochemical; details: octanol/water
[8] = target: T1, Sterol O-acyltransferase 1 (Homo sapiens, UniProt P35610); test: Inhibition of human ACAT1
T1 sequence (P35610 whole entry): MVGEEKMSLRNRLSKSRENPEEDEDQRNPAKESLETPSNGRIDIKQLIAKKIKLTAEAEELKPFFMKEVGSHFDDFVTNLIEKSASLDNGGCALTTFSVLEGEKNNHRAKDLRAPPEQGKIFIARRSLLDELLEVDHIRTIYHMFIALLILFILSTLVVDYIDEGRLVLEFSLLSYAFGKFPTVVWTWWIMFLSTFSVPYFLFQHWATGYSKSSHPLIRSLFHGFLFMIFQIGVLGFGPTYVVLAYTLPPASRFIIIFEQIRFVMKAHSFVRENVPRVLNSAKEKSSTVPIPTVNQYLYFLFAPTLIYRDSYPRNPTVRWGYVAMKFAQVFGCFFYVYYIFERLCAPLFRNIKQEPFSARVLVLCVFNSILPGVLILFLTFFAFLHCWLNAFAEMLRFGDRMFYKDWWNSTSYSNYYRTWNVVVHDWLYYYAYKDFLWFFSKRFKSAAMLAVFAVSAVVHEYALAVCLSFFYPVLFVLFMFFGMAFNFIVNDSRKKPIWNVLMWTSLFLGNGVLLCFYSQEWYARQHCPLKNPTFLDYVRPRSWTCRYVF

[9] = target: T2, Diacylglycerol O-acyltransferase 1 (Homo sapiens, UniProt O75907); test: Inhibition of human DGAT1
T2 sequence (O75907 whole entry): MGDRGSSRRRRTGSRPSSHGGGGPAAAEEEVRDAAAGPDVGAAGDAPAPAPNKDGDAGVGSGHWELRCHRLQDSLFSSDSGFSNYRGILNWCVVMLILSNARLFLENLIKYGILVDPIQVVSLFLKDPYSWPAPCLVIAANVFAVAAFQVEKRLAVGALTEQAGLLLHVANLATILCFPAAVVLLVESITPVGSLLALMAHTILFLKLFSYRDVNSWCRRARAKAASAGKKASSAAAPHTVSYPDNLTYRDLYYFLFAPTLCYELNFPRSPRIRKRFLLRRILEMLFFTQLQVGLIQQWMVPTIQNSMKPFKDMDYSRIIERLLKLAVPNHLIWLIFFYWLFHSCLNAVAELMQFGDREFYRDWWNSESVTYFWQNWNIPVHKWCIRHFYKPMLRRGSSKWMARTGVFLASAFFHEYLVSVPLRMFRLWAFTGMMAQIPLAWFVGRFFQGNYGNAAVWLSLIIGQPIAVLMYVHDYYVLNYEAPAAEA

[10] = Thermodynamic solubility of the compound after 24 hrs at pH 7.4; format: physicochemical; details: buffer, read-out: Therm_solubility
Plasma = test: Fraction unbound in rat plasma; format: ADME, cell-free
[11] = target: T2, Diacylglycerol O-acyltransferase 1; test: Inhibition of DGAT1 in human HuTu80 cells assessed as reduction in triglyceride levels; format: cell-based
[12] = target: T3, Diacylglycerol O-acyltransferase 1 (Rattus norvegicus, UniProt Q9ERM3); test: Inhibition of DGAT1 in rat microsomes
T3 sequence (Q9ERM3 whole entry): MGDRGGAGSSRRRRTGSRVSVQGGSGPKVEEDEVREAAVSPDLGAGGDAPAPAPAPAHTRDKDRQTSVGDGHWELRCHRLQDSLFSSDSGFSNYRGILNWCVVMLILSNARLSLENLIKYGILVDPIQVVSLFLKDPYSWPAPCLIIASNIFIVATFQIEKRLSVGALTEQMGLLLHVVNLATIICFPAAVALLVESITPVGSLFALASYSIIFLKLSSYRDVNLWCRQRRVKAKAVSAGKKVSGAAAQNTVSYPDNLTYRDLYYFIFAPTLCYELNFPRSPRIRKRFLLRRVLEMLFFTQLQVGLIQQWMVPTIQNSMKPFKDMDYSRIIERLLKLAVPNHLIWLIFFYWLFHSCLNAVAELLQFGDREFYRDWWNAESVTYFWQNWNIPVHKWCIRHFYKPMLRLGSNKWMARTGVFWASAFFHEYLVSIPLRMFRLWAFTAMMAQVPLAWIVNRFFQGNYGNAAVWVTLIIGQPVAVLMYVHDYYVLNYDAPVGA

Rattus norvegicus [13] = species: Rattus norvegicus; test: Reduction in circulating plasma triglyceride levels in rat by oral lipid tolerance test by PK/PD analysis; format: functional, organism-based
Rattus norvegicus [14] = species: Rattus norvegicus; test: Reduction in circulating plasma triglyceride levels in rat by oral lipid tolerance test; format: functional, organism-based
Cytochrome P450 3A4 = Cytochrome P450 3A4 (Homo sapiens, UniProt P08684); test: Inhibition of CYP3A4 (unknown origin); format: ADME
Cytochrome P450 2C19 = Cytochrome P450 2C19 (Homo sapiens, UniProt P33261); test: Inhibition of CYP2C19 (unknown origin); format: ADME
Cytochrome P450 2D6 = Cytochrome P450 2D6 (Homo sapiens, UniProt P10635); test: Inhibition of CYP2D6 (unknown origin); format: ADME
Cytochrome P450 1A2 = target: T4, Cytochrome P450 1A2 (Homo sapiens, UniProt P05177); test: Inhibition of CYP1A2 (unknown origin); format: ADME
T4 sequence (P05177 whole entry): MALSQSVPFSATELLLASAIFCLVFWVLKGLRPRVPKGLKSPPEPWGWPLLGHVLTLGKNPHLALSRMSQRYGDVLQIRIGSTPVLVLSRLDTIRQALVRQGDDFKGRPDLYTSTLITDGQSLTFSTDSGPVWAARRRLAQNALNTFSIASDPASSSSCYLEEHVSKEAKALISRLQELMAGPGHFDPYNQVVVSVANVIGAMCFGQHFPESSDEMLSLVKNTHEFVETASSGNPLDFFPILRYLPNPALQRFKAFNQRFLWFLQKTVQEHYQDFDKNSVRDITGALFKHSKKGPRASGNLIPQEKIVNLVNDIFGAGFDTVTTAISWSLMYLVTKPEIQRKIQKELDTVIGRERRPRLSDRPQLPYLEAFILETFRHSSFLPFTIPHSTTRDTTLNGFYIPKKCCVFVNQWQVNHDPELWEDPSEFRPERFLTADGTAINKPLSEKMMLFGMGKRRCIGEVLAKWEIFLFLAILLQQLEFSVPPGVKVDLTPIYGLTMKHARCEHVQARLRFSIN

[15] = target: Voltage-gated inwardly rectifying potassium channel KCNH2 (Homo sapiens, UniProt Q12809); test: Inhibition of human ERG
Cytochrome P450 2C9 = Cytochrome P450 2C9 (Homo sapiens, UniProt P11712); test: Inhibition of CYP2C9 (unknown origin); format: ADME
[16] = target: T5, Diacylglycerol O-acyltransferase 2 (Homo sapiens, UniProt Q96PD7); test: Inhibition of human DGAT2
T5 sequence (Q96PD7 whole entry): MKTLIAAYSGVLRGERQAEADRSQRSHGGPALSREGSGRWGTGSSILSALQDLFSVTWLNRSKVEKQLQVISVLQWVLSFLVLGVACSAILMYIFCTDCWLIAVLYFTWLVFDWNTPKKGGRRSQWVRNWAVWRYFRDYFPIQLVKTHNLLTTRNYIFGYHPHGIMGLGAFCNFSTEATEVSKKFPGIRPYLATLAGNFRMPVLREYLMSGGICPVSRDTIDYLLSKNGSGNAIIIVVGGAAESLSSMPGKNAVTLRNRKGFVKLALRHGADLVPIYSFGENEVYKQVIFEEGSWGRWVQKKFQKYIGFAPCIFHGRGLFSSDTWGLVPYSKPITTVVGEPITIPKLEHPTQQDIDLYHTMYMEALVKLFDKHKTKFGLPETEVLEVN

[17] = Apparent permeability in human Caco2 cells assessed as permeability from apical to basolateral side; format: ADME, cell-based; details: Caco-2

Cytochrome P450 2D6, sequence (P10635 whole entry): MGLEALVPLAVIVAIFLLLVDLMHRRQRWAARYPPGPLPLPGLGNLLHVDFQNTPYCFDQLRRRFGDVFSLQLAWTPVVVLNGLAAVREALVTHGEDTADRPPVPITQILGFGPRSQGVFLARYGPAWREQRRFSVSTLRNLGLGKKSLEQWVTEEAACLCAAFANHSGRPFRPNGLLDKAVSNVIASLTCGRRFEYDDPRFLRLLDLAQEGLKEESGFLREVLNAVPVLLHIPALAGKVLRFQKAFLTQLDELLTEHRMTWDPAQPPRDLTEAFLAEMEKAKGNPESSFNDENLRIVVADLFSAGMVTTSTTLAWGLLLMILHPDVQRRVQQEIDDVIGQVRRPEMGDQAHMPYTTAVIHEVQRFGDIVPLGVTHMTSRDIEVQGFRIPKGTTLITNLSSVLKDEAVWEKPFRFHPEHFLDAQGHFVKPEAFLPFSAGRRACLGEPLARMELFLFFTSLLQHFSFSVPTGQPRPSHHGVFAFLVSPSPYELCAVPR
Cytochrome P450 2C19, sequence (P33261 whole entry): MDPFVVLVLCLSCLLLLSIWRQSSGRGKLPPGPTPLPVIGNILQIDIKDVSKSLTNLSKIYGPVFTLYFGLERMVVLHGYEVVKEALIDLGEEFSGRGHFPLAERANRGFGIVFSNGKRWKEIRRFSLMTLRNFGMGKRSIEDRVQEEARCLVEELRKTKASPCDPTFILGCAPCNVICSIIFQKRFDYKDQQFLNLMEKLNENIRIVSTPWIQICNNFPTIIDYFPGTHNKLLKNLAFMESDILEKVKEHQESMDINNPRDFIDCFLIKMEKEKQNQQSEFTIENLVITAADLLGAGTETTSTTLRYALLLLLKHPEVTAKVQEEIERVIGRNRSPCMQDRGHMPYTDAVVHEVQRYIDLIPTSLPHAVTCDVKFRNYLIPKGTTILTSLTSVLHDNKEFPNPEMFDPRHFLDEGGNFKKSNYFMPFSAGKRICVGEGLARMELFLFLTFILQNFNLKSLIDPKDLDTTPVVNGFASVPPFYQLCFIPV
Voltage-gated inwardly rectifying potassium channel KCNH2, sequence (Q12809 whole entry): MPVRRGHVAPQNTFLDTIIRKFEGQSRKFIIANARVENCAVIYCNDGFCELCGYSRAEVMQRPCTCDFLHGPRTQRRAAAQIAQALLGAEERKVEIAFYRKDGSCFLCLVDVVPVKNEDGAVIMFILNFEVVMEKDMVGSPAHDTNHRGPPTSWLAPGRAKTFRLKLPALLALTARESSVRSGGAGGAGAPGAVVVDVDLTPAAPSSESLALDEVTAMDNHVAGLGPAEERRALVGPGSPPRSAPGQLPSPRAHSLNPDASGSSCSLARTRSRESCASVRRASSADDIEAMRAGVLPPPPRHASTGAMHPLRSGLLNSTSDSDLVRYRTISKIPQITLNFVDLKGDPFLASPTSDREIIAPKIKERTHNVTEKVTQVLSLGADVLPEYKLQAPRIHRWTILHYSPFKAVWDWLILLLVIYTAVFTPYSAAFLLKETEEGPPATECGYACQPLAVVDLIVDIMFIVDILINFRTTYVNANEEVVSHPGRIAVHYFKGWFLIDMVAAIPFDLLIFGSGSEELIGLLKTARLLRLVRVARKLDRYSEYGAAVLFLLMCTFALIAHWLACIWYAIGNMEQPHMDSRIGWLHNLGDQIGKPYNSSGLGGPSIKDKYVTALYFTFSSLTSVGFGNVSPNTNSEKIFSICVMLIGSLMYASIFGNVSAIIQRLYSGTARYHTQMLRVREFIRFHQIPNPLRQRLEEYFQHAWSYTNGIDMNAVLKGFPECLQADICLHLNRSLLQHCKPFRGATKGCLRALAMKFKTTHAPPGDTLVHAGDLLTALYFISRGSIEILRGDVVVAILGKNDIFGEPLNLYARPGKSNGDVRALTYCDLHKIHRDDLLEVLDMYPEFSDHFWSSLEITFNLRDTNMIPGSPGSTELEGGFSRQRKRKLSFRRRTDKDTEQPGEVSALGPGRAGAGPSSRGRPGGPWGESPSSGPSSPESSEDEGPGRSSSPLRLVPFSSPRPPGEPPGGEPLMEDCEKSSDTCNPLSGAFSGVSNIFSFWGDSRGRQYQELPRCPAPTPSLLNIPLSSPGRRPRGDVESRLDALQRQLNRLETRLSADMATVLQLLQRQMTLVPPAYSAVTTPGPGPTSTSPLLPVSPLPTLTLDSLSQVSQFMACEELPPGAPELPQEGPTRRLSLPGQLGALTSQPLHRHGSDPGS
Cytochrome P450 3A4, sequence (P08684 whole entry): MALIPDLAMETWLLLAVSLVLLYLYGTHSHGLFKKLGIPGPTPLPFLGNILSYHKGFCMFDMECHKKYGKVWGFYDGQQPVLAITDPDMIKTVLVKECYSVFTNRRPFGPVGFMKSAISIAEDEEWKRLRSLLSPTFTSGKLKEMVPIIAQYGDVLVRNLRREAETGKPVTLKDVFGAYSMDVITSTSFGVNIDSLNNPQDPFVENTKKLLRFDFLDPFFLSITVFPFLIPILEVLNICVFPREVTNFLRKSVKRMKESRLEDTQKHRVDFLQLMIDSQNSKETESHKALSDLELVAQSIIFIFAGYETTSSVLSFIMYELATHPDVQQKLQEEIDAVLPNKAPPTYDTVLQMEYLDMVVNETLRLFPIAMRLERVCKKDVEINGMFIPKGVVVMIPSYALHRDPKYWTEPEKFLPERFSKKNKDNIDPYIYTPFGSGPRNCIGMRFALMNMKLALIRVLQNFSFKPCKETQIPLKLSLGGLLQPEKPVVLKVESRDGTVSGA
Cytochrome P450 2C9, sequence (P11712 whole entry): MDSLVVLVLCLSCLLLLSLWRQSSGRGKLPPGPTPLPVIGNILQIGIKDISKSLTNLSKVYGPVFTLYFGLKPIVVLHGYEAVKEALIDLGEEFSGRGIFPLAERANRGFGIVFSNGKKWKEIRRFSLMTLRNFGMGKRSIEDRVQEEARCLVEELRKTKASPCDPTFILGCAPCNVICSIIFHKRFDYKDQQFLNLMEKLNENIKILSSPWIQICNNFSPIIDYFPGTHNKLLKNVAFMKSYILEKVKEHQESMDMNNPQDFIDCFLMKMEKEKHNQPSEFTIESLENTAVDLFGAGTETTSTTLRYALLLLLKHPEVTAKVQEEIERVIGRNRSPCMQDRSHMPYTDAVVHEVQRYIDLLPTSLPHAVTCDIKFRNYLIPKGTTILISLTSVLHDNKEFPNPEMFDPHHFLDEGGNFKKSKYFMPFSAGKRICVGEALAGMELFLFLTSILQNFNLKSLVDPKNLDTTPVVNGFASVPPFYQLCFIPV

| Structure (SMILES) | bioavailability [1] [%] | CL free (Canis familiaris) [mL/min/kg] | clearance [2] [mL/min/kg] | bioavailability [3] [%] | CL free (Rattus norvegicus [4]) [mL/min/kg] | clearance [5] [mL/min/kg] | Intrinsic clearance (CLint) (Hepatocyte) [µL/min/mg] | Papp A→B [6] [×10⁻⁶ cm/s] | logD [7] | IC50 [8] [nM] | IC50 [9] [nM] | solubility thermodynamic at 24 h [10] [µM] | other results |
| --- | --- | --- | --- | --- | --- | --- | --- | --- | --- | --- | --- | --- | --- |
| O=C(Nc1ccc(O[C@H]2CC[C@@H](C(=O)O)CC2)nc1)c1nnc(Nc2ccc(F)c(F)c2)o1 | 60 | 130 | 4.7 | 33 | 740 | 7.4 | < 2 | 2 | 1.9 | 6500 | 5 | 49 (≈ 22.5 µg/mL) |  |
| O=C(O)c1cccc(Oc2ccc(NC(=O)c3nnc(Nc4ccc(F)c(F)c4)o3)cc2)c1 |  |  |  |  |  |  | < 22 |  | 2.3 |  |  | 6 (≈ 2.71 µg/mL) | Fu (Plasma): < 0.01% |
| O=C(Nc1ccc(O[C@H]2CC[C@H](C(=O)O)CC2)cc1F)c1nnc(Nc2cc(F)c(F)cc2F)o1 |  |  |  |  |  |  |  |  | 1.8 | 6500 | 15 | 13 (≈ 6.43 µg/mL) |  |
| O=C(Nc1ccc(O[C@H]2CC[C@@H](C(=O)O)CC2)cc1)c1nnc(Nc2ccc(F)c(F)c2)o1 |  |  |  |  |  |  |  |  |  | 1100 | 4 | 3 (≈ 1.38 µg/mL) |  |
| O=C(O)C[C@H]1CC[C@@H](Oc2ccc(NC(=O)c3nnc(Nc4ccc(F)c(F)c4)o3)cn2)CC1 | 35 | 100 | 2.3 | 82 | 230 | 0.7 | < 2 | 5.1 | 2.2 | 1500 | 7 | 4 (≈ 1.89 µg/mL) | IC50 [11]: 4 nM; IC50 [12]: 0.9 nM; IC50 (Rattus norvegicus [13]): 0.2 nM; inhibition (Rattus norvegicus [14]): Dose-dependent effect; IC50 (Cytochrome P450 3A4): > 10000 nM; IC50 (Cytochrome P450 2C19): > 10000 nM; IC50 (Cytochrome P450 2D6): > 10000 nM; IC50 (Cytochrome P450 1A2): > 10000 nM; IC50 [15]: > 30000 nM; IC50 (Cytochrome P450 2C9): > 10000 nM; IC50 [16]: 28000 nM |
| N#Cc1ccc(Nc2nnc(C(=O)Nc3ccc(O[C@H]4CC[C@@H](C(=O)O)CC4)cc3)o2)cc1 |  |  |  |  |  |  |  |  | 1.4 | 14300 | 18 |  |  |
| O=C(Nc1ccc(O[C@H]2CC[C@H](C(=O)O)CC2)cc1)c1nnc(Nc2cc(F)c(F)cc2F)o1 |  |  |  |  |  |  |  |  | 1.9 |  |  | 27 (≈ 12.9 µg/mL) |  |
| O=C(Nc1ccc(O[C@H]2CC[C@@H](C(=O)O)CC2)cc1F)c1nnc(Nc2cc(F)c(F)cc2F)o1 | 76 | 1700 | 6.5 | 85 | 200 | 0.4 | < 2 |  | 1.9 | 310 | 3 | 69 (≈ 34.1 µg/mL) | Papp A→B [17]: 33 ×10⁻⁶ cm/s |
| O=C(Nc1ccc(O[C@H]2CC[C@@H](C(=O)O)CC2)nc1F)c1nnc(Nc2cc(F)c(F)cc2F)o1 | 61 | 200 | 4.6 | 100 | 300 | 1.8 | < 2 | 15 | 1.8 | 1100 | 4 | 2200 (≈ 1090 µg/mL) |  |
| O=C(O)C[C@H]1CC[C@H](c2ccc(NC(=O)c3nnc(Nc4ccc(F)c(F)c4)o3)cc2)CC1 |  |  |  |  |  |  |  |  |  |  |  | 2 (≈ 0.913 µg/mL) |  |
| O=C(Nc1ccc(O[C@H]2CC[C@@H](C(=O)O)CC2)cc1)c1nnc(Nc2ccc(F)cc2)o1 |  |  |  |  |  |  |  |  | 1.2 | 1800 | 5 | 5 (≈ 2.2 µg/mL) |  |
| O=C(O)c1ccc(Oc2ccc(NC(=O)c3nnc(Nc4ccc(F)c(F)c4)o3)cn2)cc1 |  |  |  |  |  |  |  | 1.1 | 1.4 | 5600 | 5 | 23 (≈ 10.4 µg/mL) |  |
| O=C(Nc1ccc(O[C@H]2CC[C@@H](C(=O)O)CC2)nc1F)c1nnc(Nc2ccc(F)c(F)c2)o1 |  | 300 | 5.1 |  | 600 | 3.6 | < 2 | 16 | 1.9 | 4800 | 3 | 15 (≈ 7.16 µg/mL) |  |
| O=C(Nc1ccc(O[C@H]2CC[C@@H](C(=O)O)CC2)cc1)c1nnc(Nc2cc(F)c(F)cc2F)o1 | 23 | 920 | 11 | 115 | 470 | 1.1 | < 2 | 11 | 1.9 |  |  | 43 (≈ 20.5 µg/mL) | Fu (Plasma): 0.4% |
| O=C(Nc1ccc(O[C@H]2CC[C@@H](C(=O)O)CC2)c(F)c1)c1nnc(Nc2cc(F)c(F)cc2F)o1 |  |  |  |  |  |  |  |  | 2.3 |  |  | 11 (≈ 5.44 µg/mL) |  |
| O=C(Nc1cnc(O[C@H]2CC[C@@H](C(=O)O)CC2)cc1F)c1nnc(Nc2cc(F)c(F)cc2F)o1 |  |  |  |  |  |  |  |  | 1.6 | 1300 | 6 | 240 (≈ 119 µg/mL) |  |
